# Measurements as given in US10517889B2, “Modulators of SMAD7 expression” (Ionis Pharmaceuticals, Inc., priority 2017, dated 2019).
# Strand notation (5' to 3'): a small letter for the sugar, then the base; units joined by * are phosphorothioate-linked, units joined directly phosphodiester-linked; [ ] holds rarer units or linkages, { } end groups; capitals alone tell only the bases. k = constrained ethyl (cEt); [5mC] = 5-methylcytosine; d = 2'-deoxy (DNA)
# System: human SMAD7 mRNA
# Experiment: Antisense inhibition of human SMAD7 mRNA expression in Hep3B cells by 3-10-3 cEt gapmers, 10,000 nM, electroporation (Example 2)
# Assay type: cell-based
# Details: Hep3B cells, electroporation with 10,000 nM antisense oligonucleotide, approximately 24 hours, primer probe set RTS5062, relative to untreated control cells
# Summary of the method: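 qRT-PCR (RTS5062) of SMAD7 mRNA, normalised to RIBOGREEN total RNA, gave percent inhibition relative to untreated controls. Hep3B cells at 20,000 per well received 10,000 nM oligonucleotide by electroporation, with ~24 h treatment.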
Substance,% Inhibition,% inhibition of SMAD7 mRNA expression
799140 (antisense kT*kG*kA*d[5mC]*dG*dG*dA*d[5mC]*d[5mC]*dA*dA*dA*dT*k[5mC]*k[5mC]*kT) [compound 799140],60%,–
799141 (antisense kT*kT*kA*dT*dG*dA*d[5mC]*dG*dG*dA*d[5mC]*d[5mC]*dA*kA*kA*kT) [compound 799141],47%,–
799142 (antisense kG*kG*kG*dT*dT*dA*dT*dG*dA*d[5mC]*dG*dG*dA*k[5mC]*k[5mC]*kA) [compound 799142],38%,–
799145 (antisense k[5mC]*kT*kT*dG*dG*dG*dT*dT*dA*dT*dG*dA*d[5mC]*kG*kG*kA) [compound 799145],–,46%
799146 (antisense kT*kA*k[5mC]*d[5mC]*dT*dT*dG*dG*dG*dT*dT*dA*dT*kG*kA*k[5mC]) [compound 799146],–,0%
799147 (antisense kG*kT*kA*d[5mC]*d[5mC]*dT*dT*dG*dG*dG*dT*dT*dA*kT*kG*kA) [compound 799147],–,28%
799148 (antisense kT*kG*kG*dT*dA*d[5mC]*d[5mC]*dT*dT*dG*dG*dG*dT*kT*kA*kT) [compound 799148],–,29%
799149 (antisense kG*kG*kA*dT*dG*dG*dT*dA*d[5mC]*d[5mC]*dT*dT*dG*kG*kG*kT) [compound 799149],–,46%
799150 (antisense k[5mC]*kT*kA*dG*dG*dA*dT*dG*dG*dT*dA*d[5mC]*d[5mC]*kT*kT*kG) [compound 799150],–,22%
799151 (antisense kA*kG*k[5mC]*d[5mC]*dT*dA*dG*dG*dA*dT*dG*dG*dT*kA*k[5mC]*k[5mC]) [compound 799151],–,39%
799152 (antisense kT*kG*kT*d[5mC]*dA*dG*d[5mC]*d[5mC]*dT*dA*dG*dG*dA*kT*kG*kG) [compound 799152],–,33%
799153 (antisense kG*kT*kT*dA*dG*dG*dT*dG*dT*d[5mC]*dA*dG*d[5mC]*k[5mC]*kT*kA) [compound 799153],68%,–
799154 (antisense kA*kG*kA*dG*dT*dT*dA*dG*dG*dT*dG*dT*d[5mC]*kA*kG*k[5mC]) [compound 799154],39%,–
799155 (antisense kA*kG*kA*dA*dG*dA*dG*dT*dT*dA*dG*dG*dT*kG*kT*k[5mC]) [compound 799155],32%,–
799156 (antisense kG*kA*kA*dA*dG*dA*dA*dG*dA*dG*dT*dT*dA*kG*kG*kT) [compound 799156],37%,–
799157 (antisense kG*kT*kT*dG*dT*dA*dG*dA*dA*dG*dA*dA*dA*kT*kG*kA) [compound 799157],39%,–
799158 (antisense kT*kA*kT*dG*dA*dG*dT*dT*dG*dT*dA*dG*dA*kA*kG*kA) [compound 799158],33%,–
799160 (antisense kA*k[5mC]*kG*dA*dG*dT*dG*dT*dA*dT*dG*dA*dG*kT*kT*kG) [compound 799160],61%,–
799161 (antisense k[5mC]*kA*kT*dA*d[5mC]*dG*dA*dG*dT*dG*dT*dA*dT*kG*kA*kG) [compound 799161],29%,–
799162 (antisense kT*kA*kT*d[5mC]*dA*dT*dA*d[5mC]*dG*dA*dG*dT*dG*kT*kA*kT) [compound 799162],36%,–
799163 (antisense kA*kA*kG*dT*dA*dT*d[5mC]*dA*dT*dA*d[5mC]*dG*dA*kG*kT*kG) [compound 799163],–,45%
799164 (antisense kT*k[5mC]*kG*dA*dA*dG*dT*dA*dT*d[5mC]*dA*dT*dA*k[5mC]*kG*kA) [compound 799164],–,37%
799165 (antisense kG*kT*kG*dT*d[5mC]*dG*dA*dA*dG*dT*dA*dT*d[5mC]*kA*kT*kA) [compound 799165],–,42%
